Patent EP0252524A2, “Aryl- and aralkylamide- derivatives of Omega- (substituted-phenyloxy)-alkanoic acids as inhibitors of acyl-coa: cholesterol acyltransferase and pharmaceuticals containing them” (WARNER-LAMBERT COMPANY, priority 1986, dated 1988)

What follows are compounds tested against acyl-CoA:cholesterol acyltransferase (ACAT) (assay: in vitro ACAT inhibition test: radio-labeled cholesteryl oleate formed from radio-labeled oleic acid in intestinal microsomes). Conditions: concentration required to inhibit cholesteryl oleate formation to 50% of control; tissue preparation containing rabbit intestinal microsomes.
Format: biochemical
Method: The ability of representative compounds of the present invention to inhibit ACAT was measured using an in vitro test more fully described in Field, F. J. and Salone, R. G., Biochemica et Biophysica 712: 557-570 (1982). The test assesses the ability of a test compound to inhibit the acylation of cholesterol by oleic acid by measuring the amount of radio-labeled cholesterol oleate formed from radio-labeled oleic acid in a tissue preparation containing rabbit intestinal microsomes.
The data appear in the Table where they are expressed as IC₅₀ values; i.e. the concentration of test compound required to inhibit cholesteryl oleate formation to 50% of control.

IC50 [nM]	SMILES
4800	Cc1ccc(OCCCC(C)(C)C(=O)NC(C)c2ccccn2)cc1 (centres unmarked) [Example 1, 2,2-dimethyl-5-(4-methylphenoxy)-N-[1-(2-pyridinyl)ethyl]pentanamide]
4300	CCCCc1ccc(OCCCC(C)(C)C(=O)Nc2ccccc2OC)cc1 [Example 2, 5-(4-butylphenoxy)-N-(2-methoxyphenyl)-2,2-dimethylpentanamide]
2400	CCCCc1ccc(OCCCC(C)(C)C(=O)Nc2ccc(C)cc2OC)cc1 [Example 3, 5-(4-butylphenoxy)-N-(2-methoxy-4-methylphenyl)-2,2-dimethylpentanamide]
460	CCCCc1ccc(OCCCC(C)(C)C(=O)Nc2c(OC)cc(OC)cc2OC)cc1 [Example 4, 5-(4-butylphenoxy)-2,2-dimethyl-N-(2,4,6-trimethoxyphenyl)-pentanamide]
800	CCCCc1ccc(OCCCC(C)(C)C(=O)NC(C)c2ccccn2)cc1 (centres unmarked) [Example 5, 5-(4-butylphenoxy)-2,2-dimethyl-N-[1-(2-pyridinyl)ethyl]pentanamide]
9000	CCCCc1ccc(OCCCC(C)(C)C(=O)Nc2c(OC)ncnc2OC)cc1 [Example 7, 5-(4-butylphenoxy)-N-(4,6-dimethoxy-5-pyrimidinyl)-2,2-dimethylpentanamide]
1400	Cc1ccc(NC(=O)C(C)(C)CCCOc2ccc(C(C)(C)C)cc2)c(C)c1 [Example 8, 5-[4-(1,1-dimethylethyl)phenoxy]-N-(2,4-dimethylphenyl)-2,2-dimethylpentanamide]
1200	CC(C)(CCCOc1ccc(C(C)(C)C)cc1)C(=O)Nc1ccc(F)cc1F [Example 9, N-(2,4-difluorophenyl)-5-[4-(1,1-dimethylethyl)phenoxy]-2,2-dimethylpentanamide]
44	COc1cc(OC)c(NC(=O)C(C)(C)CCCOc2ccc(C(C)(C)C)cc2)c(OC)c1 [Example 10, 5-[4-(1,1-dimethylethyl)phenoxy]-2,2-dimethyl-N-(2,4,6-trimethoxyphenyl)pentanamide]
700	CC(NC(=O)C(C)(C)CCCOc1ccc(C(C)(C)C)cc1)c1ccccn1 (centres unmarked) [Example 12, 5-[4-(1,1-dimethylethyl)phenoxy]-2,2-dimethyl-N-[1-(2-pyridinyl)ethyl]pentanamide]
160	CCC(C)(C)c1ccc(OCCCC(C)(C)C(=O)NC(C)c2ccccn2)cc1 (centres unmarked) [Example 13, 5-[4-(1,1-dimethylpropyl)phenoxy]-2,2-dimethyl-N-[1-(2-pyridinyl)ethyl]pentanamide]
700	CCCCCCc1ccc(OCCCC(C)(C)C(=O)NC(C)c2ccccn2)cc1 (centres unmarked) [Example 15, 5-(4-hexylphenoxy)-2,2-dimethyl-N-[1-(2-pyridinyl)ethyl]pentanamide]
800	CCCCCCCCc1ccc(OCCCC(C)(C)C(=O)Nc2c(OC)cc(OC)cc2OC)cc1 [Example 16, 2,2-dimethyl-5-(4-octylphenoxy)-N-(2,4,6-trimethoxyphenyl)pentanamide]
450	CCCCCCCCc1ccc(OCCCC(C)(C)C(=O)NC(C)c2ccccn2)cc1 (centres unmarked) [Example 17, 2,2-dimethyl-5-(4-octylphenoxy)-N-[1-(2-pyridinyl)ethyl]pentanamide]
